System: Akt kinase activity
Experiment: Bioluminescence imaging of nude mice bearing 293T/AS1T and 293T/AS1A xenografts
Type: in vivo
Settings: 30 mg/kg
Method: FIGS. 10a-10b illustrate the inhibition of Akt kinase activity by perifosine in living mice. FIG. 10a illustrates the efficacy of perifosine in inhibition of Akt kinase activity in living subjects was determined by bioluminescence imaging of nude mice bearing 293T/AS1A and 293T/AS1T xenografts. Mice were treated with 30 mg/kg of perifosine or carrier control at time 0 hour and re-imaged at 6, 15, 27 and 39 hours upon i.p. injection of D-Luciferin. FIG. 10b illustrate the max photons at each time point was normalized to that of carrier control treated mice and expressed as average normalized max photons+/−S.E.M. for each xenograft. It should be noted that p<0.05 relative to AS1A xenografts.
To determine if sufficient sensitivity for indirect imaging of Akt kinase activity has been achieved in living subjects, 293T/AS1T and 293T/AS1A cells were implanted at the lower left and right of nude mice for xenograft establishment. Since the bioluminescence signal from untreated 293T/AS1A cells was about 10-fold higher than that of 293T/AS1T cells in cell culture studies, 10% 293T/AS1A cells were mixed with 90% untransfected 293T cells (no FL activity) prior to implantation to normalize the signals to that of 293T/AS1T cells. Complemented FL activity in living mice was determined by bioluminescence imaging using a cooled coupled charged device (CCD) camera upon i.p. injection of D-luciferin. […] Perifosine was chosen over LY for these animal experiments since perifosine is water soluble and currently being evaluated in clinical trials. […] 6 hours of perifosine treatment led of a 20% decrease in complemented FL activity in 293T/AS1A but a 60% increase in complemented FL activity in 293T/AS1T relative to carrier control treated mice (p<0.05), corresponding to the 2-fold difference between AS1T and AS1A (FIG. 10b).
All of the animal handling was performed in accordance with Stanford University Animal Research Committee guidelines, Mice were gas anesthetized using isofluorane (2% isofluorane in 100% oxygen) during all injection and imaging procedures. Mice were imaged using a cooled CCD camera (Xenogen IVIS29; Xenogen Corp., Alameda, Calif.). […] To quantify the measured light, regions of interest were drawn over the area of the implanted cells, and the maximum photons/s/cm^2/steradian (sr) were obtained as validated previously. […] Max photons at time 6, 12 and 24 hours were normalized to that of time 0 hr for each individual mouse, and expressed as normalized average max photons±S.E.M.

## CCCCCCCCCCCCCCCCCCOP(=O)([O-])OC1CC[N+](C)(C)CC1 [perifosine]
293T/AS1A xenografts, 6 hours, relative to carrier control treated mice
  decrease in complemented FL activity: 20%
293T/AS1T and 293T/AS1A xenografts, later than 6 hours, relative to carrier control, p>0.05
  complemented FL activity at later time points: no significant difference
293T/AS1T xenografts, 6 hours, relative to carrier control treated mice, p<0.05
  increase in complemented FL activity: 60%
xenografts, 6 hours
  difference between AS1T and AS1A: 2 fold
